# T1: FZD6 TM4 synthetic peptide (human)
# T1 construct: flanking lysines added to the transmembrane stretch; transmembrane helix 4 of human FZD6, Uniprot ID O60353; Whole peptide as printed: [residues removed]; source: synthetic peptide (Pepscan Therapeutics or Fmoc synthesis, HPLC purified)
# T1 peptide: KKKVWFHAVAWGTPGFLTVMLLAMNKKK
# B1: Frizzled 6 (FZD6), wild type, expressed as V5-FZD6-mCherry and as FZD6-GFP (receptor, human, UniProt O60353 19-706, looked up)
# chain: HSLFTCEPITVPRCMKMAYNMTFFPNLMGHYDQSIAAVEMEHFLPLANLECSPNIETFLCKAFVPTCIEQIHVVPPCRKLCEKVYSDCKKLIDTFGIRWPEELECDRLQYCDETVPVTFDPHTEFLGPQKKTEQVQRDIGFWCPRHLKTSGGQGYKFLGIDQCAPPCPNMYFKSDELEFAKSFIGTVSIFCLCATLFTFLTFLIDVRRFRYPERPIIYYSVCYSIVSLMYFIGFLLGDSTACNKADEKLELGDTVVLGSQNKACTVLFMLLYFFTMAGTVWWVILTITWFLAAGRKWSCEAIEQKAVWFHAVAWGTPGFLTVMLLAMNKVEGDNISGVCFVGLYDLDASRYFVLLPLCLCVFVGLSLLLAGIISLNHVRQVIQHDGRNQEKLKKFMIRIGVFSGLYLVPLVTLLGCYVYEQVNRITWEITWVSDHCRQYHIPCPYQAKAKARPELALFMIKYLMTLIVGISAVFWVGSKKTCTEWAGFFKRNRKRDPISESRRVLQESCEFFLKHNSKVKHKKKHYKPSSHKLKVISKSMGTSTGATANHGTSAVAITSHDYLGQETLTEIQTSPETSMREVKADGASTPRLREQDCGEPASPAASISRLSGEQVDGKGQAGSVSESARSEGRISPKSDITDTGLAQSNNLQVPSSSEPSSLKGSTSLLVHPVSGVRKEQGGGCHSDT
# notes: Frizzled 6 (FZD6), human, Uniprot ID O60353; Two differently tagged copies of the same receptor are tested against each other, so they are written as one molecule; The FCS experiment used FZD6-GFP alone; also called FZD6 wt; source: HEK293, transiently transfected (Lipofectamine 2000), in living cells; not shown: V5 (on the crosslinked copy), N-terminal, kept; mCherry (on the crosslinked copy), …
# B2: FZD6 TM5 synthetic peptide (peptide)
# peptide: KKLDASRYFVLLPLCLCVFVGLSLLLAGIISKKK
# notes: flanking lysines added to the transmembrane stretch; transmembrane helix 5 of human FZD6, Uniprot ID O60353; source: synthetic peptide (Pepscan Therapeutics or Fmoc synthesis, HPLC purified)
# Legend:
# [1] = tested on: ERK1/2 phosphorylation in MLE-12 cells; experiment: basal P-ERK1/2 immunoblot, MLE-12 cells expressing minigenes; format: cell-based, mouse; details: transient transfection of minigene
# Procedure: (§1) MLE-12 or HEK293 cells (ATCC) were plated in a 24- or 48-well plate at a density of 100,000 or 50,000 cells/well, respectively. After 24 h, cells were transfected using Lipofectamine 2000 according to the manufacturer’s instructions. Cells were stimulated (24 h post-transfection) with 300 ng ml^−1 recombinant carrier-free WNT-5A (CF WNT-5A; R&D Systems). Stimulation was stopped by the addition of lysis buffer (1% NP-40, 150 mM NaCl, 50 mM Tris/HCl pH 8). Lysates were sonicated and analyzed by 7.5 or 10% Mini-PROTEAN TGX precast polyacrylamide gels (Bio-Rad) and transferred to PVDF membranes using the Trans-Blot Turbo system (Bio-Rad). […] Proteins were detected with horseradish peroxidase-conjugated secondary antibodies (goat anti-rabbit and goat anti-mouse (Pierce)) and Clarity Western ECL Blotting Substrate (Bio-Rad). […]
# (§2) Quantification of P-ERK1/2 is normalized to β-actin as loading control. […] P-ERK1/2, HA-TM1/5 and β-actin as loading control were assessed by PAGE/immunoblotting. […]
# [2] = tested on: lysophosphatidic acid receptor (endogenous); experiment: lysophosphatidic acid-induced P-ERK1/2 in HEK293 cells with minigenes; format: cell-based; details: lysophosphatidic acid 10 µM, 10 min
# Procedure: as §1, with “Cells were stimulated (24 h post-transfection) with 300 ng ml^−1 recombinant carrier-free WNT-5A (CF WNT-5A; R&D Systems).” left out
# as §2
# [3] = tested on: HEK293 and MLE-12 cell membrane; experiment: immunocytochemistry of HA-tagged minigenes without permeabilization; format: cell-based; details: 4% paraformaldehyde, no permeabilization
# From the text: Supplementary Figure 7: Control experiments for assaying receptor dimerization by dcFRAP and expression of minigenes. (a) HEK293 and MLE-12 cells were transfected with HA-tagged TM1/5 minigenes, fixed in 4% paraformaldehyde and stained with an anti-HA antibody/Cy2-conjugated secondary antibody in the absence of cell permeabilization by detergents. […]
# confirms both the membrane expression of the minigenes as well as the correct orientation of the peptides with the N-terminal signal sequence/HA tag on the extracellular side accessible to the primary antibody. Images were taken with a 40x objective using the 488 nm laser line on a Zeiss LSM 710 confocal microscope. Size bars – 10 µm. (b) Bar graph compares the immobile fraction in dcFRAP experiments of FZD6-GFP after CL of V5-FZD6-mCherry in cells expressing minigenes corresponding to either TM1 (control) or TM5 (competing at the dimer interface). P= […]
# Error bars give s.e.m.; * P<0.05 (two-tailed t-test). (c) Transient transfection of TM5, […]
# abrogation of dimer formation, in the presence of TM5, reduces receptor-mediated signaling. (d) Bar graph summarizes four independent immunoblotting experiments. P-ERK1/2 in TM1 expressing MLE-12 cells were normalized to 100%. […]
# as §2
# [4] = tested on: protease-activated receptor (endogenous); experiment: thrombin-induced P-ERK1/2 in HEK293 cells with minigenes; format: cell-based; details: thrombin 10 U/ml, 10 min
# FZD6–FZD6 dimer = experiment: dcFRAP of V5-FZD6-mCherry/FZD6-GFP (FZD6 dimerization); format: cell-based, human; details: HEK293; co-transfection of V5-FZD6-mCherry, FZD6-GFP and minigene; N=43 TM1, N=66 TM5
# Procedure: For dual color FRAP experiments, cells grown in four compartment 35 mm glass bottom dishes were washed three times with BE buffer[19] (150 mM NaCl, 2.5 mM KCl, 10 mM HEPES, 12 mM glucose, 0.5 mM CaCl2, and 0.5 mM MgCl2). Then, the cells were incubated at RT for 30 min with biotin-conjugated goat polyclonal anti-V5 antibody (Bethyl) diluted 1:100 in BE buffer supplemented with 2.5% bovine serum albumin. For antibody-mediated cross-linking, avidin was added and incubated for 15 min and washed two times with BE buffer before the experiments were performed. In Fig. 4, dcFRAP experiments are presented that employ chemical surface crosslinking to visualize assembly of FZD6 with DVL or heterotrimeric G proteins according to previously published protocols. Live cell imaging experiments were carried out using a Zeiss 710 laser scanning microscope. Images were acquired using a 40×, 1.2 NA C-Apochromat objective and the 488 nm and the 561 nm laser lines were used to excite GFP and mCherry fluorophores, respectively. Photobleaching was performed by 100% laser illumination of a 1.80 × 1.80 µm area placed over the cell plasma membrane. Fluorescence was measured pre- and post-bleach using low-intensity illumination for a total time period of 100 s. Average pixel intensity was measured using the ZEN2013 software, corrected for background fluctuations and bleaching artifacts and normalized to pre-bleached intensity. The recovered mobile fraction (F m) was calculated as follows: F m = (I P–I 0)/(I I–I 0), where I I is the initial intensity measured prior to bleaching, I 0 is the immediate fluorescence intensity post-bleaching and I P is intensity value post-bleaching. The mobile fraction was defined by the average of the fluorescence recovery assessed between time 85–101 s (including pre-bleach measurements). We excluded experiments in which the extracellularly tagged receptors were not sufficiently immobilized after the crosslinking procedure (cutoff at 40% crosslinking-induced reduction in mobile fraction). Kinetic determination of mobile fractions of crosslinked V5-FZD6-mCherry and FZD6-GFP with WNT stimulation over time were performed in one cell culture well. Measurements for each time point were performed on separate cells.
# Statistical and graphical analysis was performed using Graph Pad Prism 5 software. Data were analyzed by two-tailed t-test or one-way ANOVA with Fisher’s least significant difference post hoc analysis. Curve fitting of FRAP data was done with a two-phase association nonlinear function using the least square fit. Data for receptor titration in the presence of C59 and output to P-ERK1/2 in Fig. 6h was fit to a linear regression model. All experiments were repeated at least three times in independent experiments (not representing technical replicates). For single cell analysis (dcFRAP), the number of the individual ROIs obtained from several cells in at least three independent experiments is provided in the figure legends. Data from individual ROIs are summarized for data presentation providing the sum of independent observations. Significance levels are given as: *P < 0.05; **P < 0.01; ***P < 0.001. Data in FRAP curves and bar graphs (FRAP) are presented as mean ± s.e.m.
# [5] = target: the molecule itself; experiment: fluorescence cross-correlation spectroscopy (FCCS); living HEK293 cells co-expressing FZD6-GFP and V5-FZD6-mCherry at low levels (10-1000 receptors per µm^2), no crosslinking; dynamic measurements before and after WNT-5A (300 ng ml^-1)
# [6] = target: B1; experiment: cell-based or functional assay
# [7] = target: T1, FZD6 TM4 synthetic peptide; experiment: SEC; Superdex 30 analytical column, triple distilled water + 0.01% DDM, room temperature; 500 µM of each peptide, incubated together for 2 h; details: both partners purified
molecule,measurement,setting,value
KKKSFIGTVSIFCLCATLFTFLTFLIKKK [TM1 minigene],effect on basal P-ERK1/2,[1],did not affect basal ERK1/2 levels
same,effect on lysophosphatidic acid-induced P-ERK1/2,[2],did not observe any difference in P-ERK1/2 induction
same,membrane expression and orientation (anti-HA staining),[3],Positive anti-HA staining in the cell membrane
same,effect on thrombin-induced P-ERK1/2,[4],did not observe any difference in P-ERK1/2 induction
KKLDASRYFVLLPLCLCVFVGLSLLLAGIISKKK [TM5 minigene],effect of minigene on FZD6 dimer formation,FZD6–FZD6 dimer,perturbed dimer formation
same,effect on basal P-ERK1/2,[1],reduced basal P-ERK1/2
same,effect on lysophosphatidic acid-induced P-ERK1/2,[2],did not observe any difference in P-ERK1/2 induction
same,membrane expression and orientation (anti-HA staining),[3],Positive anti-HA staining in the cell membrane
same,effect on thrombin-induced P-ERK1/2,[4],did not observe any difference in P-ERK1/2 induction
B1,stoichiometry N,[5],2
KKLDASRYFVLLPLCLCVFVGLSLLLAGIISKKK [HA-tagged TM5 minigene of FZD6],"basal P-ERK1/2 level (immunoblot) in MLE-12 cells expressing the TM5 minigene, which interferes with the FZD6-FZD6 dimer; the TM1 minigene had no effect",[6],56.7%
B2,binding result,[7],binds
